The values that follow come from ChEMBL document CHEMBL1159244, “New polyoxypregnane ester derivatives from Leptadenia hastata” (J Nat Prod, 1995).

Active and inactive are the calls of the source. The rule behind the calls is not given here.

Assay [1] has as its system Raji. Description: Cytotoxicity against human Raji cells assessed as [methyl-3H]thymidine incorporation into DNA at 0.5 ug/ml after 24 hrs. It is filed as functional, cell-based. Background: Uptake of a labelled nucleoside into DNA is a usual measure of proliferation.
The test system of assay [2] is Raji. Description: Cytotoxicity against human Raji cells assessed as [methyl-3H]thymidine incorporation into DNA at 1 ug/ml after 24 hrs. It is filed as functional, cell-based.

For `C[C@H](OC(=O)c1cccnc1)[C@]1(O)CC[C@@]2(O)[C@]1(C)[C@H](OC(=O)/C=C/c1ccccc1)C[C@@H]1[C@@]3(C)CC[C@H](O)CC3=CC[C@]12O`, the outcome in assay [1] and in assay [2] was inactive.

Turning to `C[C@H](O)[C@]1(O)CC[C@@]2(O)[C@]1(C)[C@H](OC(=O)/C=C/c1ccccc1)C[C@@H]1[C@@]3(C)CC[C@H](O)CC3=CC[C@]12O`, the outcome in assay [1] and in assay [2] was inactive.

Turning to `C[C@H](OC(=O)c1ccccc1)[C@]1(O)CC[C@@]2(O)[C@]1(C)[C@H](OC(=O)c1ccccc1)C[C@@H]1[C@@]3(C)CC[C@H](O)CC3=CC[C@]12O`, the outcome in assay [1] and in assay [2] was inactive.

On to `CC(=O)O[C@@H]1C[C@@H]2[C@@]3(C)CC[C@H](O)CC3=CC[C@@]2(O)[C@@]2(O)CC[C@@](O)(C(C)=O)[C@@]12C`, for which the outcome in assay [1] and in assay [2] was inactive.

Consider `CC(=O)O[C@@H]1C[C@@H]2[C@@]3(C)CC[C@H](O)CC3=CC[C@@]2(O)[C@@]2(O)CC[C@@](O)([C@H](C)O)[C@@]12C`, for which the result in assay [1] and in assay [2] was inactive.

Take `CC(=O)[C@]1(O)CC[C@@]2(O)[C@]1(C)[C@H](OC(=O)/C=C/c1ccccc1)C[C@@H]1[C@@]3(C)CC[C@H](O)CC3=CC[C@]12O`: the result in assay [1] and in assay [2] was inactive.

As for `CO[C@H]1C[C@H](O[C@H]2CC[C@@]3(C)C(=CC[C@]4(O)[C@@H]3C[C@@H](OC(=O)c3ccccc3)[C@@]3(C)[C@]4(O)CC[C@@]3(O)[C@H](C)OC(=O)/C=C/c3ccccc3)C2)O[C@H](C)[C@H]1O`, the result in assay [1] and in assay [2] was inactive.

`CC(=O)O[C@@H](C)[C@]1(O)CC[C@@]2(O)[C@]1(C)[C@H](OC(=O)c1cccnc1)C[C@@H]1[C@@]3(C)CC[C@H](O)CC3=CC[C@]12O`: the result in assay [1] and in assay [2] was inactive.

On to `CO[C@H]1C[C@H](O[C@H]2CC[C@@]3(C)C(=CC[C@]4(O)[C@@H]3C[C@@H](OC(=O)/C=C/c3ccccc3)[C@@]3(C)[C@]4(O)CC[C@@]3(O)[C@H](C)O)C2)O[C@H](C)[C@H]1O[C@H]1C[C@@H](OC)[C@H](O)[C@@H](C)O1`, for which the outcome in assay [1] and in assay [2] was inactive.

With `C[C@H](OC(=O)/C=C/c1ccccc1)[C@]1(O)CC[C@@]2(O)[C@]1(C)[C@H](OC(=O)c1ccccc1)C[C@@H]1[C@@]3(C)CC[C@H](O)CC3=CC[C@]12O`, the outcome in assay [1] and in assay [2] was inactive.

As to `CC(=O)O[C@@H](C)[C@]1(O)CC[C@@]2(O)[C@]1(C)[C@H](OC(=O)/C=C/c1ccccc1)C[C@@H]1[C@@]3(C)CC[C@H](O)CC3=CC[C@]12O`, the outcome in assay [1] and in assay [2] was inactive.

With `CC(=O)[C@]1(O)CC[C@@]2(O)[C@]1(C)[C@H](OC(=O)c1ccccc1)C[C@@H]1[C@@]3(C)CC[C@H](O)CC3=CC[C@]12O`, the result in assay [1] and in assay [2] was inactive.

Turning to `CO[C@H]1C[C@H](O[C@H]2CC[C@@]3(C)C(=CC[C@]4(O)[C@@H]3C[C@@H](OC(=O)c3ccccc3)[C@@]3(C)[C@]4(O)CC[C@@]3(O)[C@H](C)OC(=O)/C=C/c3ccccc3)C2)O[C@H](C)[C@H]1O[C@H]1C[C@@H](OC)[C@H](O)[C@@H](C)O1`, the outcome in assay [1] and in assay [2] was inactive.

As to `CC(=O)[C@]1(O)CC[C@@]2(O)[C@]1(C)[C@H](OC(=O)c1cccnc1)C[C@@H]1[C@@]3(C)CC[C@H](O)CC3=CC[C@]12O`, the outcome in assay [1] and in assay [2] was inactive.
